Measurements taken from the NIST ThermoML archive (doi:10.1021/je050021e).
Numbers after ± are expanded uncertainties.

Assay: xn = mol fraction of the nth substance listed
Details: Liquid; for viscosity: 101 kPa; for mass density: 101.3 kPa

COCCOCCOCCOC [2,5,8,11-tetraoxadodecane] + O
Details	mass density, 303.15 K [kg/m3]	mass density, 313.15 K [kg/m3]	mass density, 323.15 K [kg/m3]	mass density, 333.15 K [kg/m3]	mass density, 343.15 K [kg/m3]	viscosity, 303.15 K [mPa·s]	viscosity, 313.15 K [mPa·s]	viscosity, 323.15 K [mPa·s]	viscosity, 333.15 K [mPa·s]	viscosity, 343.15 K [mPa·s]
x1 = 0.0198	1004.97 ± 0.1	1000.31 ± 0.1	995.02 ± 0.1	989.18 ± 0.1	982.78 ± 0.11	1.38 ± 0.03	1.09 ± 0.03	0.876 ± 0.021	0.728 ± 0.018	0.617 ± 0.016
x1 = 0.05	1015.35 ± 0.13	1008.77 ± 0.12	1001.79 ± 0.12	994.39 ± 0.12	986.6 ± 0.12	2.38 ± 0.05	1.79 ± 0.04	1.39 ± 0.03	–	0.922 ± 0.022
x1 = 0.07	1019.1 ± 0.14	1011.54 ± 0.14	1003.67 ± 0.14	995.46 ± 0.14	986.96 ± 0.14	2.99 ± 0.07	2.19 ± 0.05	1.67 ± 0.04	1.33 ± 0.03	1.08 ± 0.03
x1 = 0.1	1020.68 ± 0.17	1012.19 ± 0.17	1003.47 ± 0.16	994.52 ± 0.16	985.33 ± 0.16	3.6 ± 0.08	2.6 ± 0.06	1.96 ± 0.04	1.53 ± 0.04	1.24 ± 0.03
x1 = 0.2	1012.62 ± 0.26	1003.21 ± 0.25	993.71 ± 0.25	984.05 ± 0.25	974.27 ± 0.25	3.76 ± 0.08	2.8 ± 0.06	2.1 ± 0.05	1.66 ± 0.038	1.34 ± 0.03
x1 = 0.3	1002.98 ± 0.35	993.51 ± 0.34	983.93 ± 0.34	974.23 ± 0.34	964.41 ± 0.34	3.13 ± 0.07	2.39 ± 0.05	1.88 ± 0.04	1.52 ± 0.04	1.26 ± 0.03
x1 = 0.4	995.48 ± 0.44	985.98 ± 0.43	976.37 ± 0.43	966.69 ± 0.43	956.86 ± 0.43	2.67 ± 0.06	2.09 ± 0.05	1.69 ± 0.04	1.4 ± 0.03	1.17 ± 0.03
x1 = 0.5	990.09 ± 0.53	980.57 ± 0.53	970.93 ± 0.52	961.2 ± 0.52	951.36 ± 0.52	2.38 ± 0.05	1.94 ± 0.04	1.6 ± 0.04	1.3 ± 0.03	1.1 ± 0.03
x1 = 0.6	985.94 ± 0.62	976.37 ± 0.62	966.77 ± 0.61	957.06 ± 0.61	947.25 ± 0.6	2.14 ± 0.05	1.73 ± 0.04	1.44 ± 0.03	1.21 ± 0.03	1.04 ± 0.03
x1 = 0.7	982.66 ± 0.72	973.09 ± 0.71	963.5 ± 0.71	953.78 ± 0.7	943.99 ± 0.69	1.99 ± 0.05	1.65 ± 0.04	1.37 ± 0.03	1.16 ± 0.03	0.998 ± 0.025
x1 = 0.8	979.8 ± 0.81	970.25 ± 0.8	960.68 ± 0.8	950.98 ± 0.79	941.33 ± 0.78	1.9 ± 0.05	1.58 ± 0.04	1.32 ± 0.03	1.13 ± 0.03	0.976 ± 0.025
x1 = 0.9	977.61 ± 0.91	968.06 ± 0.9	958.5 ± 0.89	948.9 ± 0.88	939.3 ± 0.87	1.82 ± 0.04	1.51 ± 0.04	1.27 ± 0.03	1.1 ± 0.03	0.952 ± 0.024
x1 = 1	975.86 ± 1	966.36 ± 0.99	956.85 ± 0.98	947.32 ± 0.97	937.72 ± 0.96	1.77 ± 0.04	1.48 ± 0.04	1.26 ± 0.03	1.08 ± 0.03	0.945 ± 0.025
